Consider five compounds from patent US5767141A, “Substituted propane derivatives, a process for their preparation and the use of the compounds for treating diseases” (Hoechst Aktiengesellschaft, priority 1994, dated 1998).

The target of assay [1] is T1, glucose-6-phosphatase system (Rattus norvegicus, UniProt F7EWB7).
T1 construct: To prepare the microsome fraction containing the glucose-6-phosphatase, fresh liver organs from male Wistar rats were used; from tissue; host or cells: liver microsome fraction of male Wistar rats
T1 sequence (F7EWB7 1-429): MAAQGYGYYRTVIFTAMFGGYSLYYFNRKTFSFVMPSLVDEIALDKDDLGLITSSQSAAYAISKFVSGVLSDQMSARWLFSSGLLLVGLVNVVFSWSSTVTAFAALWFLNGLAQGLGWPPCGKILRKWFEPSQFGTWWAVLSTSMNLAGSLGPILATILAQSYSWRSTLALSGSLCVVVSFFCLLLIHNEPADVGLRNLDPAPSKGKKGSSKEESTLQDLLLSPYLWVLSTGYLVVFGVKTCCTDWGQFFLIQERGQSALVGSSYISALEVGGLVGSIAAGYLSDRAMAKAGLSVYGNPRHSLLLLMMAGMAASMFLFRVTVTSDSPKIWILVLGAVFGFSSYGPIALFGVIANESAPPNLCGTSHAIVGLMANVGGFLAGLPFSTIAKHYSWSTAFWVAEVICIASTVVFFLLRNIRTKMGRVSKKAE
The experiment in a line: inhibition of the glucose-6-phosphatase system, enzyme assay in liver microsomes (phosphate liberated from glucose 6-phosphate). It counts as biochemical, male Wistar rats. The procedure:
The effect of the compounds according to the invention on the glucose-6-phosphatase system was investigated in an enzyme assay in liver microsomes.
To prepare the microsome fraction containing the glucose-6-phosphatase, fresh liver organs from male Wistar rats were used and were processed as described in the literature [Canfield, W. K. and Arion, W. J., J. Biol. Chem. 263, 7458-7460, (1988)]. This microsome fraction can be stored at -70° C. for at least 2 months without significant loss of activity.
The glucose-6-phosphatase activity was detected as indicated in the literature (Arion, W. J. in Methods Enzymol. 174, Academic Press 1989, pages 58-67) by determination of the phosphate liberated from glucose 6-phosphate. 0.1 ml of assay mixture contained glucose 6-phosphate (1 mmol/l), the test substance, 0.1 mg of microsome fraction and 100 mmol/l HEPES buffer (4-(2-hydroxyethyl)piperazine-1-ethanesulfonic acid), pH 7.0. The reaction was started by adding the enzyme. After 20 minutes at room temperature, the reaction was stopped by adding 0.2 ml of phosphate reagent. The sample was incubated at 37° C. for 30 min, and the absorption (A) of the blue color was subsequently measured at 570 nm. The inhibitory activity of the test substance emerged from comparison with a control reaction which contained no test substance according to the formula [formula] […]

The subject of assay [2] is glucose-6-phosphatase. The following applies: qualitative, literature; cited from earlier work.

As to `CC(C)(COC(=O)/C=C(/c1ccccc1)n1cnc2ccccc21)C(OCCCc1ccc(Cl)cc1)C(=O)O` (racemic) [Example 1, (±)-4-(3Z-(1-Benzimidazolyl)-3-phenylpropenoyloxy)-2-(4-chlorophenylpropyloxy)-3,3-dimethylbutanoic acid], the “inhibition of the glucose-6-phosphatase system (in words)” value in assay [1] (qualitative statement) is “inhibitors of the glucose-6-phosphatase system”. In addition, the IC50 in assay [1] (rat liver microsome fraction, glucose 6-phosphate 1 mmol/l, pH 7.0, 20 minutes at room temperature, read-out: IC50 (concentration for 50% inhibition of enzyme activity)) turned out to be 4 µM.
With `S=C=Nc1ccccc1C=Cc1ccccc1N=C=S` [2,2'-diisothiocyanatostilbene], the “inhibition of glucose-6-phosphatase (in words)” value in assay [2] is “non-specific inhibitors of glucose-6-phosphatase”.
`CC(=O)Oc1ccccc1C=Cc1ccccc1N=C=S` [2-iso-thiocyanato-2'-acetoxystilbene]: in assay [2], the “inhibition of glucose-6-phosphatase (in words)” value is listed as “non-specific inhibitors of glucose-6-phosphatase”.
As for `O=C(O)c1cc(SSc2ccc([N+](=O)[O-])c(C(=O)O)c2)ccc1[N+](=O)[O-]` [5,5'-dithiobis-2-nitrobenzoic acid], the “inhibition of glucose-6-phosphatase (in words)” value in assay [2] was “non-specific inhibitors of glucose-6-phosphatase”.
As to `O=C(CCc1ccc(O)cc1)c1c(O)cc(O)cc1O[C@@H]1O[C@H](CO)[C@@H](O)[C@H](O)[C@H]1O` [phlorrhizin], in assay [2], the “inhibition of glucose-6-phosphatase (in words)” value was “non-specific inhibitors of glucose-6-phosphatase”.
